{"source": "patent US20060269482A1", "about": "(priority 2005, published 2006)", "key": {"[1]": {"tested_on": "Rb phosphorylation in human PBMCs", "experiment": "Rb phosphorylation in human PBMCs treated ex vivo", "assay_type": "cell-based", "conditions": "PMA stimulated, 0.2 to 2.0 μM, Western blot", "method": "Approximately 10 mls of blood was collected from five healthy human volunteers into sodium heparin treated Vacutainer blood collection tubes by Employee Health Services. PBMCs were separated using the Lymphocyte Separation Medium (LSM) and protocol supplied by ICN Biomedicals Inc. (Costa Mesa, Calif.). Briefly whole blood was diluted 1:1 with cold HBSS (Hanks Balanced Salt Solution), layered onto the LSM and centrifuged. The band of mononuclear cells above the LSM was collected, transferred to a new tube and washed once with cold HBSS. Cells were resuspended in RPMI 1640, 10% HI-FBS, 2 mM L-glutamine and 0.01 mg/ml Gentamicin Reagent Solution (GIBCO/Invitrogen). […]\nPBMCs were collected by transferring the cells, including attached cells and those in suspension, into 50 ml tubes. […] Samples were sonicated on ice for 30 seconds, clarified by centrifugation at 16,000×g for 10 minutes at 4° C. and protein concentrations determined using Non-Interfering Protein Assay Kit (Geno Technology Incorporated, Maplewood, Mo.). […] For Western blotting, total Rb was detected using antibody from Pharmingen (BD Bioscience, San Diego, Calif.) at a dilution of 1:2000. Lysates were analysed by Western blotting for Rb phosphorylation using polyclonal antibodies against phosphorylated serine 795, serine 780, threonine 821 and serine 807/811 in human Rb (FIG. 8). […]"}, "[2]": {"tested_on": "MTLn3 xenograft", "experiment": "Tumor growth inhibition in the MTLn3 xenograft model", "assay_type": "in vivo, rat", "conditions": "2 to 3 weeks oral dosing at 80 mg/kg once weekly", "method": "Female Fischer rats obtained from Charles River Laboratories were used when they were ˜13-15 weeks old and weighed ˜150 grams. All animals were examined prior to the initiation of studies to ensure that they were healthy and acclimated to the laboratory environment. Autoclaved water and irradiated food were provided ad libitum, and the animals were maintained in a 12 hour light and dark cycle. MTLn3 cells were grown in RPMI 1640 supplemented with 10% heat-inactivated Fetal Bovine Serum (HI-FBS; GIBCO/Invitrogen, Carlsbad, Calif.) and 2 mM L-glutamine (GIBCO/Invitrogen) and maintained at 37° C. at 5% CO2. The MTLn3 cells were obtained from Hoffmann-La Roche Inc., Nutley, N.J. Approximately 1×10^6 cells/0.2mls/rat in PBS (Phosphate Buffered Saline) Phenol-red free, Ca^+2 and Mg^+2-free were implanted subcutaneously in the right mammary fat pad. The dose selected was 80 mg/kg, determined to be an efficacious dose in this animal model. Tumor growth inhibition in the MTLn3 xenograft model after 2 to 3 weeks of oral dosing at 80 mg/kg once weekly averaged 90% with 2/10 complete regressions. […] Concentrations of COMPOUND A in plasma and tumors were determined in the same three animals per time point. […] Peripheral blood mononuclear cells (PBMCs) were isolated, stimulated ex vivo with mitogen and analyzed by Western blot as described below."}}, "data": [{"smiles": "COc1ccc(F)c(F)c1C(=O)c1cnc(NC2CCN(S(C)(=O)=O)CC2)nc1N", "note": "[COMPOUND A, [4-amino-2-(1-methanesulfonylpiperidin-4-ylamino)pyrimidin-5-yl]-(2,3-difluoro-6-methoxyphenyl)methanone]", "values": [{"measurement": "Rb phosphorylation at the serine 807/811 site", "setting": "[1]; human PBMCs of two donors", "value": "complete inhibition of phosphorylation"}, {"measurement": "Rb phosphorylation at the threonine 821 site", "setting": "[1]; human PBMCs, 24 hours incubation", "value": "not inhibited at any concentration"}, {"measurement": "Tumor growth inhibition", "setting": "[2]", "value": 90, "unit": "%"}, {"measurement": "complete regressions", "setting": "[2]", "value": "2/10"}]}]}
